Experimental data published in patent US10336768B2, “Pyrimidine compounds and methods using the same” (Yuma Therapeutics, Inc., priority 2014, dated 2019).
In brackets after ≈: the same amount, converted by molar mass. Several values for one entry are separate records, joined by “and”; a condition that tells them apart may be missing. Equal values may be shown once. Read-outs that look alike come from different tables or passages of the source. Marks after values point to notes of the source that are not given here.

Legend:
[1] = Solubility in pH 7.4 buffer; format: physicochemical; settings: pH 7.4, aqueous buffer, pH of 7.4
Protocol: Compound solubility was determined in pH 7.4 buffer. Aqueous solubility of greater than or equal to about 0.5 μM (e.g., greater than or equal to about 1 μM, greater than or equal to about 2 μM, greater than or equal to about 5 μM, greater than or equal to about 10 μM, greater than or equal to about 20 μM, or greater than or equal to about 30 μM) may indicate a compound having acceptable solubility for medical use, e.g., for treatment of a neurodegenerative disorder.

[2] = test system: Hsp70; experiment: Hsp90 cell based functional assay (Western blot for Hsp70, Hsp90)
Protocol: Cells were treated with compounds of the invention for 24 h and then lysed in a buffer containing NP-40, orthovanadate, and protease inhibitors. Western blots were performed with antibodies specific to Hsp70, Hsp90, or actin (as control).

[3] = Mouse liver microsomal stability; format: in vitro ADME; settings: mouse liver microsomes; read-out: microsomal stability T1/2
Protocol: Metabolic stability of the compounds of the invention was assessed by monitoring their degradation in mouse liver microsomes.

[4] = Mouse pharmacokinetics, brain tissue levels (LC-MS/MS); format: in vivo; settings: for concentration at 0.5 h: 0.50 h; for half-life: read-out: Half life (t1/2) (converted)
Protocol: (§1) Plasma and brain samples were taken pre-dose and at post dose time points of pre-dose, 15 and 30 minutes, 1, 2, and 8 hours. The pre-dose group was represented by 5 animals, whereas the post-dose groups were represented by 3 animals.
(§2) Bioanalysis of mouse plasma samples for compound 20 was conducted by protein precipitation and LC-MS/MS with compound 22 as the internal standard. The method was based on a ‘generic assay’ and some method development was conducted to tailor that assay to the particular compound and internal standard. The eventual non-GLP assay was first tested by analyzing a bioanalytical run with spiked mouse plasma samples. The qualification run passed by the run acceptance criteria (see below). Bioanalysis was then conducted of plasma sample extracts and of brain sample homogenate extracts, using a calibration and quality control samples spiked in mouse plasma. The assay is described below.
(§3) Evaluation of pharmacokinetic parameters was conducted by calculation from the mean concentration (n=5 pre-dose, n=3 post-dose) at each time point.

[5] = test system: P-glycoprotein (P-gp, MDR1); experiment: MDR1-MDCK permeability assay; format: in vitro ADME; settings: dog, apical to basal
Text: (§4) Compounds may be assessed in MDR1-MDCK permeability assay or Caco-2 permeability assay to determine their permeability. Apical (A) to basal (B) permeability >3×10^−6 cm/sec and B→A/A→B asymmetry <3 for a compound are considered acceptable predictors of brain penetration, and compounds having such properties are unlikely to be P-glycoprotein (P-gp) substrates. Compound 20 has shown excellent permeability in MDR1-MDCK assay (A-B=28×10^−6 cm/s) with low asymmetry (B→A/A→B asymmetry=0.9).

[6] = test system: P-gp (MDR1); experiment: MDR1-MDCK permeability assay; format: in vitro ADME; settings: dog, read-out: B→A/A→B asymmetry
Text: as §4

[7] = Mouse pharmacokinetics, plasma levels (LC-MS/MS); format: in vivo; settings: for AUC(0-t): read-out: AUC(0-8 h); for half-life: read-out: Half life (t1/2) (converted)
Protocol: as §1, §2
Compound 20 and compound 22 were extracted from the mouse plasma matrix by protein precipitation. To 20.0 μL of sample was added 10.0 μL of internal standard working solution (1000 ng/mL in MeOH) and 200 μL of MeCN. The mixture was vortexed (5 sec) and centrifuged (14000 rpm, 5 min). The supernatant was then recovered and evaporated to dryness. The residue was redissolved in 100 μL of redissolving solution (80:20 v:v of mobile phases A:B). For analysis, 20.0 μL was injected in to the LC-MS/MS system.
All chromatography was done with a type 1100 liquid chromatograph (Agilent), equipped with an auto-injector. The analytical column was an Xbridge C18 3.5 μm 2.1×50 mm (Waters), employed at 50° C. The mobile phase was a gradient, composed of solvent A:1 g/L ammonium acetate in Milli-Q water, and solvent B: MeCN.
All experiments were done on an API 3000 triple quadrupole instrument (AB Sciex), operated in positive turbo-ionspray mode (‘TIS+’). The instrument parameters had been optimized during method development.
[…] Two sets of calibration samples were used, one set placed before and the other placed after the study samples. In addition, QC samples at 5 levels (two samples at each level) were included in the run, as performance indicators and for run acceptance.
as §3

[8] = mouse brain tissue, Table 14, footnote: excluding IRN 12 result
[9] = mouse brain tissue, Table 15, footnote: including IRN 12 result
[10] = mouse, brain homogenate, mouse brain homogenate, read-out: Mean Group Concentration, Homogenate
[11] = mouse, brain, mouse brain tissue, read-out: Mean Group Concentration, Tissue
[12] = mouse, brain, mouse brain tissue, Table 14, footnote: excluding IRN 12 result
[13] = mouse, brain, mouse brain tissue, Table 15, footnote: including IRN 12 result
[14] = mouse, plasma, Table 11, footnote: excluding IRN12 result
[15] = mouse, plasma, Table 12, footnote: including IRN12 result

Nc1nc(-c2c(Cl)cc(Cl)c3c2CCO3)c2[nH]ccc2n1 [compound 20, 4-(5,7-Dichloro-2,3-dihydrobenzofuran-4-yl)-5H-pyrrolo[3,2-d]pyrimidin-2-amine]
solubility [1]: 30 µM (≈ 9.64 µg/mL)
expression of Hsp70 ([2]; Western blot, FIG. 5B): increase in the expression of Hsp70
expression of Hsp90 ([2]; Western blot, FIG. 5B, relative to variation in concentration): expression of Hsp90 remains unchanged
EC50 ([2]; read-out: Hsp 70 agonist activity): > 10 µM
half-life [3]: 26 min
Homogenate concentration, individual animals ([4]; mouse brain homogenate, 15 minutes post dose (B_0.25), 0.00 = below LLOQ 0.988 ng/mL): 0.00 ^a ng/mL and 1250 ng/mL
Homogenate concentration, individual animals ([4]; mouse brain homogenate, 30 minutes post dose (C_0.5)): 844 ng/mL and 1200 ng/mL
Homogenate concentration, individual animals ([4]; mouse brain homogenate, 1 hour post dose (D_1)): 859 ng/mL and 789 ng/mL
Homogenate concentration, individual animals ([4]; mouse brain homogenate, 2 hours post dose (E_2)): 385 ng/mL and 294 ng/mL
Homogenate concentration, individual animals ([4]; mouse brain homogenate, 8 hours post dose (F_8)): 7.53 ng/mL and 1.83 ng/mL and 1.53 ng/mL
Mean Group Concentration, Tissue ([4]; mouse brain tissue, 0.25 h, excluding IRN 12 result): ^a excluding IRN 12 result: 15772 ng/g.
Mean Group Concentration, Tissue ([4]; mouse brain tissue, 0.25 h, incl. IRN 12): 10515 ^a ng/g
AUC(0-inf) [4, 8]: 22900 ng·h/mL
Kelimination [4, 8]: 0.769 per hour (h^−1)
AUC(0-t) ([4]; mouse brain tissue, Table 14, footnote: excluding IRN 12 result, read-out: AUC(0-8 h)): 22900 ng·h/mL
Tmax ([4]; mouse brain tissue, Table 14, footnote: excluding IRN 12 result, read-out: Tmax): 15 min
Kelimination [4, 9]: 0.789 per hour (h^−1)
Tmax [4, 9]: 15 min (h)
Brain concentration, individual animals ([4]; mouse brain, 15 minutes post dose (B_0.25), 0.00 = below LLOQ): 0.00 ^a ng/g and 10870 ng/g
Brain concentration, individual animals ([4]; mouse brain, 30 minutes post dose (C_0.5)): 7371 ng/g and 10480 ng/g
Brain concentration, individual animals ([4]; mouse brain, 1 hour post dose (D_1)): 7486 ng/g and 6846 ng/g
Brain concentration, individual animals ([4]; mouse brain, 2 hours post dose (E_2)): 3341 ng/g and 2518 ng/g
Brain concentration, individual animals ([4]; mouse brain, 8 hours post dose (F_8)): 63.0 ng/g and 15.0 ng/g and 12.9 ng/g
concentration at 0.25 h ([4]; mouse, brain homogenate, mouse brain homogenate, 0.25 h, incl. IRN 12, read-out: Mean Group Concentration, Homogenate): 1180 ng/mL
concentration at 15 min ([4]; mouse, brain homogenate, mouse brain homogenate, 15 minutes post dose (B_0.25), 0.00 = below LLOQ 0.988 ng/mL, read-out: Homogenate concentration, individual animals): 2300 ng/mL
concentration at 0.5 h [4, 10]: 1150 ng/mL
concentration at 30 min ([4]; mouse, brain homogenate, mouse brain homogenate, 30 minutes post dose (C_0.5), read-out: Homogenate concentration, individual animals): 1400 ng/mL
concentration at 1 h ([4]; mouse, brain homogenate, mouse brain homogenate, 1.00 h, read-out: Mean Group Concentration, Homogenate): 845 ng/mL
concentration at 1 h ([4]; mouse, brain homogenate, mouse brain homogenate, 1 hour post dose (D_1), read-out: Homogenate concentration, individual animals): 888 ng/mL
concentration at 2 h ([4]; mouse, brain homogenate, mouse brain homogenate, 2.00 h, read-out: Mean Group Concentration, Homogenate): 363 ng/mL
concentration at 2 h ([4]; mouse, brain homogenate, mouse brain homogenate, 2 hours post dose (E_2), read-out: Homogenate concentration, individual animals): 410 ng/mL
concentration at 8 h [4, 10]: 3.63 ng/mL
concentration at 0.5 h [4, 11]: 9820 ng/g
concentration at 1 h ([4]; mouse, brain, mouse brain tissue, 1.00 h, read-out: Mean Group Concentration, Tissue): 7280 ng/g
concentration at 2 h ([4]; mouse, brain, mouse brain tissue, 2.00 h, read-out: Mean Group Concentration, Tissue): 3150 ng/g
concentration at 8 h [4, 11]: 30 ng/g
Cmax [4, 12]: 10500 ng/g
half-life [4, 12]: 54 min
Cmax [4, 13]: 15800 ng/g
half-life [4, 13]: 52.8 min
concentration at 15 min ([4]; mouse, brain, mouse brain, 15 minutes post dose (B_0.25), 0.00 = below LLOQ, read-out: Brain concentration, individual animals): 20700 ng/g
concentration at 30 min ([4]; mouse, brain, mouse brain, 30 minutes post dose (C_0.5), read-out: Brain concentration, individual animals): 11600 ng/g
concentration at 1 h ([4]; mouse, brain, mouse brain, 1 hour post dose (D_1), read-out: Brain concentration, individual animals): 7490 ng/g
concentration at 2 h ([4]; mouse, brain, mouse brain, 2 hours post dose (E_2), read-out: Brain concentration, individual animals): 3600 ng/g
Papp A→B [5]: 28 ×10⁻⁶ cm/s
efflux ratio [6]: 0.9
Mean Group Concentration, plasma ([7]; 0.25 h): ^a Excluding IRN 12 result: 14950 ng/mL
Plasma concentration, individual animals ([7]; 15 minutes post dose (B_0.25), values above 8000 ng/mL out of range, indicative): 17,900 ^b ng/mL and 12,000 ^b ng/mL
Plasma concentration, individual animals ([7]; 30 minutes post dose (C_0.5), out of range (>8000 ng/mL), indicative): 11,500 ^b ng/mL and 10,500 ^b ng/mL and 11,100 ^b ng/mL
Plasma concentration, individual animals ([7]; 1 hour post dose (D_1)): 7,130 ng/mL and 7,470 ng/mL
Plasma concentration, individual animals ([7]; 2 hours post dose (E_2)): 4,180 ng/mL and 4,440 ng/mL
Plasma concentration, individual animals ([7]; 8 hours post dose (F_8)): 99.3 ng/mL and 22.5 ng/mL and 21.9 ng/mL
Kelimination ([7]; Table 11, footnote: excluding IRN12 result): 0.725 per hour (h^−1)
Kelimination ([7]; Table 12, footnote: including IRN12 result): 0.730 per hour (h^−1)
concentration at 0.25 h ([7]; mouse, plasma, 0.25 h, n=3 incl. IRN 12, read-out: Mean Group Concentration, plasma): 9970 ng/mL
concentration at 15 min ([7]; mouse, plasma, 15 minutes post dose (B_0.25), values above 8000 ng/mL out of range, indicative, read-out: Plasma concentration, individual animals): 2.66 ng/mL
concentration at 0.5 h ([7]; mouse, plasma, 0.50 h, read-out: Mean Group Concentration, plasma): 11000 ng/mL
concentration at 1 h ([7]; mouse, plasma, 1.00 h, read-out: Mean Group Concentration, plasma): 7160 ng/mL
concentration at 1 h ([7]; mouse, plasma, 1 hour post dose (D_1), read-out: Plasma concentration, individual animals): 6890 ng/mL
concentration at 2 h ([7]; mouse, plasma, 2.00 h, read-out: Mean Group Concentration, plasma): 4260 ng/mL
concentration at 2 h ([7]; mouse, plasma, 2 hours post dose (E_2), read-out: Plasma concentration, individual animals): 4150 ng/mL
concentration at 8 h ([7]; mouse, plasma, 8.00 h, read-out: Mean Group Concentration, plasma): 47.9 ng/mL
AUC(0-inf) [7, 14]: 27100 ng·h/mL
Cmax [7, 14]: 11000 ng/mL
Tmax [7, 14]: 30 min
AUC(0-t) [7, 14]: 27000 ng·h/mL
half-life [7, 14]: 57.6 min
AUC(0-inf) [7, 15]: 28300 ng·h/mL
Cmax [7, 15]: 15000 ng/mL
Tmax [7, 15]: 15 min
AUC(0-t) [7, 15]: 28300 ng·h/mL
half-life [7, 15]: 57 min
